Where two headings read alike, the source gives them in different places. Numbered stars: 1 amine (or outer) side, 2 acyl side, 3 side chain; on linkers, the order of the positions; unused ones are H or OH. Peptide text beside a SMILES is read from it. * marks the point of attachment. Propanoyl(3-(4-MeO-Ph)) = COc1ccc(CCC(=O)*)cc1; Benzoyl(4-Ph) = O=C(c1ccc(-c2ccccc2)cc1)*; X43 = CS(=O)(=O)c1ccc(C(=O)CCC(=O)*)cc1; Pentanoyl(5-Ph) = O=C(CCCCc1ccccc1)*; Propanoyl(3-cHex) = O=C(CCC1CCCCC1)*; X16 = O=C(c1cc(-c2ccncc2)[nH]n1)*; X37 = Cc1ccc(C(=O)CCC(=O)*)cc1; X39 = O=C(C1CCC(c2ccccc2)CC1)*; X22 = O=C(C1CC(Cc2ccccc2)C1)*; X6 = O=C(Cn1ccc(=O)[nH]c1=O)*; Suc = O=C(CCC(=O)[*:2])[*:1]; X38 = O=C(CC1CCS(=O)(=O)C1)*; X40 = CC(CC(=O)*)CC(C)(C)C; X10 = Nc1cccc(CCC(=O)*)c1; X29 = Nc1ccc(CCC(=O)*)cc1; X33 = CN1CCN(CCC(=O)*)CC1; Morpholide = C1CN(*)CCO1; X27 = O=C(CCCN1CCOCC1)*; X2 = CC(C)(C)CCCC(=O)*; X23 = NC(=O)NCCC(=O)*; X41 = O=C(CCn1cncn1)*

Data on 20 compounds can be found in US11034725B2, “Compositions and methods for treating cardiovascular disease” (Genentech, Inc., priority 2016, dated 2021).

One test addresses PCSK9 (Homo sapiens, UniProt Q8NBP7). The test is described as follows: PCSK9/EGF(A) TR-FRET binding assay. Particulars: Table 8E, additional compounds. Background: TR-FRET usually uses a lanthanide donor and a delayed reading to cut background.
For another test, the target named is T1, PCSK9Δhelix (Homo sapiens, UniProt Q8NBP7).
T1 construct: Human PCSK9 construct M1-Q692 with an engineered TEV site (residue deletion Y166, R167); made in house; host or cells: CHO
Kind of test: PCSK9Δhelix/Ab20 TR-FRET binding assay. Particulars: Table 8E, additional compounds.

Setting [1] is: TR-FRET, read-out: PCSK9/EGF(A) IC50.
[2] abbreviates: TR-FRET, read-out: PCSK9Δhelix/Ab20 IC50.

T1 sequence (Q8NBP7 with tags, fused parts or gaps limits assumed): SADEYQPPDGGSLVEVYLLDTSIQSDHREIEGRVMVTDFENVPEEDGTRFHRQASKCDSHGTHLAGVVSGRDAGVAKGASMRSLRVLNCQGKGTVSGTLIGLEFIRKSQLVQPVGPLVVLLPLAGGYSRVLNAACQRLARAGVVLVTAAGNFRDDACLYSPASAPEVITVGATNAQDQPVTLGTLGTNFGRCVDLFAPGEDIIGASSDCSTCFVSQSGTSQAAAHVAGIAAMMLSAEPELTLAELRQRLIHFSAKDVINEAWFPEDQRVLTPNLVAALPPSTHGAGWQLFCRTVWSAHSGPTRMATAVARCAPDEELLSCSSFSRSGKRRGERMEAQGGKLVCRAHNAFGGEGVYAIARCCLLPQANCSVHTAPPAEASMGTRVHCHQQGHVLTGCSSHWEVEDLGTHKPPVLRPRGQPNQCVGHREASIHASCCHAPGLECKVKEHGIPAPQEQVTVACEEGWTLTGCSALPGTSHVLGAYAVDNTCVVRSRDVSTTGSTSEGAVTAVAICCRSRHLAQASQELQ
T1 sequence (Q8NBP7 31-152 partner limits assumed): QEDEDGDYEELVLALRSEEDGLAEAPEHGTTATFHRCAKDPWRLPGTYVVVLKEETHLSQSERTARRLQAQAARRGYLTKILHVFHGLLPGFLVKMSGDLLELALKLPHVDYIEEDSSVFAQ
Sequence of PCSK9 (Q8NBP7 153-692): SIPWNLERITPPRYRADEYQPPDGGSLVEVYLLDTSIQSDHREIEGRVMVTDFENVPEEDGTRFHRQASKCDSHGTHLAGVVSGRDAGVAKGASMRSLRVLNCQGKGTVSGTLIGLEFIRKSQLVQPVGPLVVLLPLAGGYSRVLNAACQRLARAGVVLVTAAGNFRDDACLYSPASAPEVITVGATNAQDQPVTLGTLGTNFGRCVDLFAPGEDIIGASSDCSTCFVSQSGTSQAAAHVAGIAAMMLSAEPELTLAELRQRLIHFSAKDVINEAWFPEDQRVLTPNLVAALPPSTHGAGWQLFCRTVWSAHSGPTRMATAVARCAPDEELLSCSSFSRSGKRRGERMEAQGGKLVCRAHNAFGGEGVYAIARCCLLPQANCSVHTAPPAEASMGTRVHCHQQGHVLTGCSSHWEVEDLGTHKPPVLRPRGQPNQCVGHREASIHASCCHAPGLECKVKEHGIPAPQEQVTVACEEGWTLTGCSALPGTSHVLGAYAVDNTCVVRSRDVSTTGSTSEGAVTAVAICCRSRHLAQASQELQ
Sequence of PCSK9 (Q8NBP7 31-152 partner limits assumed): as the sequence (Q8NBP7 31-152 partner limits assumed) above

`CC[C@H](C)[C@H](NC(=O)[C@H](CCCNC(=N)N)NC(=O)[C@@H](NC(=O)[C@H](CC(C)C)NC(=O)[C@H](CC(N)=O)NC(=O)[C@H](Cc1c[nH]c2ccccc12)NC(=O)CC1CCS(=O)(=O)C1)C(C)C)C(=O)NCC(=O)N[C@@H](CC(C)C)C(=O)N[C@@H](CC(C)C)C(=O)N[C@@H](CCCNC(=N)N)C(N)=O` (stereo partly shown) [Compound 139] (X38-WNLVRIGLLR-NH2): the IC50 at PCSK9 (setting [1]) is at least 50 µM; at PCSK9Δhelix (setting [2]), 19 µM.
The matching figures for `CC[C@H](C)[C@H](NC(=O)[C@H](CCCNC(=N)N)NC(=O)[C@@H](NC(=O)[C@H](CC(C)C)NC(=O)[C@H](CC(N)=O)NC(=O)[C@H](Cc1c[nH]c2ccccc12)NC(=O)CCN1CCN(C)CC1)C(C)C)C(=O)NCC(=O)N[C@@H](CC(C)C)C(=O)N[C@@H](CC(C)C)C(=O)N[C@@H](CCCNC(=N)N)C(N)=O` [Compound 140] (X33-WNLVRIGLLR-NH2): at least 50 µM and 26 µM.
The like results for `CC[C@H](C)[C@H](NC(=O)[C@H](CCCNC(=N)N)NC(=O)[C@@H](NC(=O)[C@H](CC(C)C)NC(=O)[C@H](CC(N)=O)NC(=O)[C@H](Cc1c[nH]c2ccccc12)NC(=O)CCNC(N)=O)C(C)C)C(=O)NCC(=O)N[C@@H](CC(C)C)C(=O)N[C@@H](CC(C)C)C(=O)N[C@@H](CCCNC(=N)N)C(N)=O` [Compound 141] (X23-WNLVRIGLLR-NH2) were, in that order, at least 50 µM and 36 µM.
The matching figures for `CC[C@H](C)[C@H](NC(=O)[C@H](CCCNC(=N)N)NC(=O)[C@@H](NC(=O)[C@H](CC(C)C)NC(=O)[C@H](CC(N)=O)NC(=O)[C@H](Cc1c[nH]c2ccccc12)NC(=O)CCn1cncn1)C(C)C)C(=O)NCC(=O)N[C@@H](CC(C)C)C(=O)N[C@@H](CC(C)C)C(=O)N[C@@H](CCCNC(=N)N)C(N)=O` [Compound 142] (X41-WNLVRIGLLR-NH2): at least 50 µM and 15 µM.
Turning to `CC[C@H](C)[C@H](NC(=O)[C@H](CCCNC(=N)N)NC(=O)[C@@H](NC(=O)[C@H](CC(C)C)NC(=O)[C@H](CC(N)=O)NC(=O)[C@H](Cc1c[nH]c2ccccc12)NC(=O)Cn1ccc(=O)[nH]c1=O)C(C)C)C(=O)NCC(=O)N[C@@H](CC(C)C)C(=O)N[C@@H](CC(C)C)C(=O)N[C@@H](CCCNC(=N)N)C(N)=O` [Compound 143] (X6-WNLVRIGLLR-NH2), the IC50 was at least 50 µM at PCSK9 (setting [1]) and 23 µM at PCSK9Δhelix (setting [2]).
The matching figures for `CC[C@H](C)[C@H](NC(=O)[C@H](CCCNC(=N)N)NC(=O)[C@@H](NC(=O)[C@H](CC(C)C)NC(=O)[C@H](CC(N)=O)NC(=O)[C@H](Cc1c[nH]c2ccccc12)NC(=O)C1CC(Cc2ccccc2)C1)C(C)C)C(=O)NCC(=O)N[C@@H](CC(C)C)C(=O)N[C@@H](CC(C)C)C(=O)N[C@@H](CCCNC(=N)N)C(N)=O` (stereo partly shown) [Compound 144] (X22-WNLVRIGLLR-NH2): 9.7 µM and 4 µM.
In the case of `CC[C@H](C)[C@H](NC(=O)[C@H](CCCNC(=N)N)NC(=O)[C@@H](NC(=O)[C@H](CC(C)C)NC(=O)[C@H](CC(N)=O)NC(=O)[C@H](Cc1c[nH]c2ccccc12)NC(=O)c1ccc(-c2ccccc2)cc1)C(C)C)C(=O)NCC(=O)N[C@@H](CC(C)C)C(=O)N[C@@H](CC(C)C)C(=O)N[C@@H](CCCNC(=N)N)C(N)=O` [Compound 145] ({Benzoyl(4-Ph)}-WNLVRIGLLR-NH2), the IC50 was found to be 7.3 µM on PCSK9 (PCSK9/EGF(A) IC50, TR-FRET) and 2.2 µM on PCSK9Δhelix (PCSK9Δhelix/Ab20 IC50, TR-FRET).
With `CC[C@H](C)[C@H](NC(=O)[C@H](CCCNC(=N)N)NC(=O)[C@@H](NC(=O)[C@H](CC(C)C)NC(=O)[C@H](CC(N)=O)NC(=O)[C@H](Cc1c[nH]c2ccccc12)NC(=O)CCCCc1ccccc1)C(C)C)C(=O)NCC(=O)N[C@@H](CC(C)C)C(=O)N[C@@H](CC(C)C)C(=O)N[C@@H](CCCNC(=N)N)C(N)=O` [Compound 146] ({Pentanoyl(5-Ph)}-WNLVRIGLLR-NH2), the IC50 at PCSK9 (setting [1]) came to 11 µM; at PCSK9Δhelix (setting [2]), 1.7 µM.
For the compound `CC[C@H](C)[C@H](NC(=O)[C@H](CCCNC(=N)N)NC(=O)[C@@H](NC(=O)[C@H](CC(C)C)NC(=O)[C@H](CC(N)=O)NC(=O)[C@H](Cc1c[nH]c2ccccc12)NC(=O)C1CCC(c2ccccc2)CC1)C(C)C)C(=O)NCC(=O)N[C@@H](CC(C)C)C(=O)N[C@@H](CC(C)C)C(=O)N[C@@H](CCCNC(=N)N)C(N)=O` (stereo partly shown) [Compound 147] (X39-WNLVRIGLLR-NH2), the IC50 on PCSK9 (setting [1]) came to 2.6 µM; on PCSK9Δhelix (setting [2]), 0.41 µM.
The matching figures for `CC[C@H](C)[C@H](NC(=O)[C@H](CCCNC(=N)N)NC(=O)[C@@H](NC(=O)[C@H](CC(C)C)NC(=O)[C@H](CC(N)=O)NC(=O)[C@H](Cc1c[nH]c2ccccc12)NC(=O)CCCC(C)(C)C)C(C)C)C(=O)NCC(=O)N[C@@H](CC(C)C)C(=O)N[C@@H](CC(C)C)C(=O)N[C@@H](CCCNC(=N)N)C(N)=O` [Compound 148] (X2-WNLVRIGLLR-NH2): 19 µM and 11 µM.
For the compound `CC[C@H](C)[C@H](NC(=O)[C@H](CCCNC(=N)N)NC(=O)[C@@H](NC(=O)[C@H](CC(C)C)NC(=O)[C@H](CC(N)=O)NC(=O)[C@H](Cc1c[nH]c2ccccc12)NC(=O)CC(C)CC(C)(C)C)C(C)C)C(=O)NCC(=O)N[C@@H](CC(C)C)C(=O)N[C@@H](CC(C)C)C(=O)N[C@@H](CCCNC(=N)N)C(N)=O` (stereo partly shown) [Compound 149] (X40-WNLVRIGLLR-NH2), the IC50 on PCSK9 (setting [1]) amounted to 11 µM; at PCSK9Δhelix (setting [2]), 8.9 µM.
The matching figures for `CC[C@H](C)[C@H](NC(=O)[C@H](CCCNC(=N)N)NC(=O)[C@@H](NC(=O)[C@H](CC(C)C)NC(=O)[C@H](CC(N)=O)NC(=O)[C@H](Cc1c[nH]c2ccccc12)NC(=O)c1cc(-c2ccncc2)[nH]n1)C(C)C)C(=O)NCC(=O)N[C@@H](CC(C)C)C(=O)N[C@@H](CC(C)C)C(=O)N[C@@H](CCCNC(=N)N)C(N)=O` [Compound 150] (X16-WNLVRIGLLR-NH2): 22 µM and 8.2 µM.
The matching figures for `CC[C@H](C)[C@H](NC(=O)[C@H](CCCNC(=N)N)NC(=O)[C@@H](NC(=O)[C@H](CC(C)C)NC(=O)[C@H](CC(N)=O)NC(=O)[C@H](Cc1c[nH]c2ccccc12)NC(=O)CCC1CCCCC1)C(C)C)C(=O)NCC(=O)N[C@@H](CC(C)C)C(=O)N[C@@H](CC(C)C)C(=O)N[C@@H](CCCNC(=N)N)C(N)=O` [Compound 151] ({Propanoyl(3-cHex)}-WNLVRIGLLR-NH2): 6.9 µM and 2.5 µM.
The like results for `CC[C@H](C)[C@H](NC(=O)[C@H](CCCNC(=N)N)NC(=O)[C@@H](NC(=O)[C@H](CC(C)C)NC(=O)[C@H](CC(N)=O)NC(=O)[C@H](Cc1c[nH]c2ccccc12)NC(=O)CCc1ccc(N)cc1)C(C)C)C(=O)NCC(=O)N[C@@H](CC(C)C)C(=O)N[C@H](C(=O)N[C@@H](CCCNC(=N)N)C(N)=O)[C@@H](C)O` [Compound 161] (X29-WNLVRIGLTR-NH2) were, in that order, at least 50 µM and 5 µM.
Turning to `CC[C@H](C)[C@H](NC(=O)[C@H](CCCNC(=N)N)NC(=O)[C@@H](NC(=O)[C@H](CC(C)C)NC(=O)[C@H](CC(N)=O)NC(=O)[C@H](Cc1c[nH]c2ccccc12)NC(=O)CCCN1CCOCC1)C(C)C)C(=O)NCC(=O)N[C@@H](CC(C)C)C(=O)N[C@H](C(=O)N[C@@H](CCCNC(=N)N)C(N)=O)[C@@H](C)O` [Compound 162] (X27-WNLVRIGLTR-NH2), the figures for the IC50 at PCSK9 (setting [1]) and on PCSK9Δhelix (setting [2]) were at least 50 µM and 37 µM, respectively.
The like results for `CC[C@H](C)[C@H](NC(=O)[C@H](CCCNC(=N)N)NC(=O)[C@@H](NC(=O)[C@H](CC(C)C)NC(=O)[C@H](CC(N)=O)NC(=O)[C@H](Cc1c[nH]c2ccccc12)NC(=O)CCC(=O)c1ccc(S(C)(=O)=O)cc1)C(C)C)C(=O)NCC(=O)N[C@@H](CC(C)C)C(=O)N[C@H](C(=O)N[C@@H](CCCNC(=N)N)C(N)=O)[C@@H](C)O` [Compound 163] (X43-WNLVRIGLTR-NH2) were, in that order, at least 50 µM and 37 µM.
As to `CC[C@H](C)[C@H](NC(=O)[C@H](CCCNC(=N)N)NC(=O)[C@@H](NC(=O)[C@H](CC(C)C)NC(=O)[C@H](CC(N)=O)NC(=O)[C@H](Cc1c[nH]c2ccccc12)NC(=O)CCc1cccc(N)c1)C(C)C)C(=O)NCC(=O)N[C@@H](CC(C)C)C(=O)N[C@H](C(=O)N[C@@H](CCCNC(=N)N)C(N)=O)[C@@H](C)O` [Compound 164] (X10-WNLVRIGLTR-NH2), the IC50 on PCSK9 (setting [1]) was at least 50 µM; on PCSK9Δhelix (setting [2]) it was 12 µM.
The matching figures for `CC[C@H](C)[C@H](NC(=O)[C@H](CCCNC(=N)N)NC(=O)[C@@H](NC(=O)[C@H](CC(C)C)NC(=O)[C@H](CC(N)=O)NC(=O)[C@H](Cc1c[nH]c2ccccc12)NC(=O)CCC(=O)c1ccc(C)cc1)C(C)C)C(=O)NCC(=O)N[C@@H](CC(C)C)C(=O)N[C@H](C(=O)N[C@@H](CCCNC(=N)N)C(N)=O)[C@@H](C)O` [Compound 165] (X37-WNLVRIGLTR-NH2): at least 50 µM and 18 µM.
The matching figures for `CC[C@H](C)[C@H](NC(=O)[C@H](CCCNC(=N)N)NC(=O)[C@@H](NC(=O)[C@H](CC(C)C)NC(=O)[C@H](CC(N)=O)NC(=O)[C@H](Cc1c[nH]c2ccccc12)NC(=O)CCc1ccc(OC)cc1)C(C)C)C(=O)NCC(=O)N[C@@H](CC(C)C)C(=O)N[C@H](C(=O)N[C@@H](CCCNC(=N)N)C(N)=O)[C@@H](C)O` [Compound 166] ({Propanoyl(3-(4-MeO-Ph))}-WNLVRIGLTR-NH2): at least 50 µM and 5.9 µM.
The like results for `CC[C@H](C)[C@H](NC(=O)[C@H](CCCNC(=N)N)NC(=O)[C@@H](NC(=O)[C@H](CC(C)C)NC(=O)[C@H](CC(N)=O)NC(=O)[C@H](Cc1c[nH]c2ccccc12)NC(=O)CCC(=O)N1CCOCC1)C(C)C)C(=O)NCC(=O)N[C@@H](CC(C)C)C(=O)N[C@H](C(=O)N[C@@H](CCCNC(=N)N)C(N)=O)[C@@H](C)O` [Compound 167] ({Morpholide-Suc}-WNLVRIGLTR-NH2) were, in that order, at least 50 µM and 43 µM.
